Test results from patent US8318697B2, “Prophylactic and therapeutic treatment of infectious and other diseases with mono- and disaccharide-based compounds” (Corixa Corporation, priority 2000, dated 2012).

Assays:
human macrophage = test: Microarray of RNA from stimulated human macrophage; format: cell-based
P. carinii = test: Protection against P. carinii infection in anti-CD4 treated (immunocompromised) mice, lung impression smear score; format: in vivo; parameters: GIEMSA score for presence of P. carinii / SILVER score for presence of P. carinii: scale not given here
Procedure: Mice were pretreated with L3T4 anti-CD4 antibody for a minimum of 2 weeks (2 injections/week, 0.2 mg/injection) or until the peripheral CD4 count was reduced by at least about 50%.
An aqueous formulation was prepared containing 1 mg/ml 3-O-deacylated monophosphoryl lipid A and 108 μg/ml of the surfactant DPPC in water. The formulation was administered intratracheally via a small cannula at −24 hours and then twice a week for the remainder of the study. The concentrations administered are indicated below in Table 1. One million P. carinii were inoculated trans-tracheally at day 0. Twice-weekly treatments were continued for 7 weeks, lungs were removed and impression smears made. Slides were stained with Giemsa and silver and scored for the presence of P. carinni as follows.

C3H/HEJ splenocytes = test: Cytokine induction in C3H/HEJ (toll-receptor 4 mutant) mouse splenic cultures; format: cell-based
Procedure: Lipid A compounds were tested by reconstitution in 0.2% triethanolamine in sterile water for irrigation, incubated at 56° C. and sonicated for 2×10 minutes at 37° C. LPS 055B5 (Sigma-Aldrich; St Louis, Mo.) was diluted into PBS.
BALB/c, DBA/2 and C3H/HEJ mice were purchased from The Jackson Laboratory (Bar Harbor, Me.). Spleens were taken from the mice between 2 PM and 3 PM, and separate single cell suspensions were obtained for each mouse strain. Red blood cells were lysed using Tris-ammonium chloride solution (Sigma-Aldrich), cells were washed and counted using Trypan Blue (Sigma-Aldrich) exclusion. One million splenocytes were cultured per well in 1.0 mL of culture medium. Splenic culture medium (SCM) was designed for 5 day or longer cultures of mouse splenocytes and consisted of RPMI 1640 (Sigma-Aldrich) supplemented to 5% with fetal bovine serum (HyClone; Logan, Utah), 100 ug/mL Gentamicin (Sigma-Aldrich), 250 ng/mL amphothericin (InVitrogen Life Technologies; Carlsbad, Calif.), 1×ITS (bovine insulin 500 ng/mL, human transferring 500 ng/mLg, sodium selenite 250 ng/mL, Sigma), beta-mercaptoethanol 43 nM (Sigma-Aldrich) purivic acid 1 mM (Sigma-Aldrich), HEPES 10 mM (Sigma-Aldrich). Data from these experiments is presented herein as FIG. 8.
BALB/c responses and C3H/HEJ responses were compared for MPL and RC552. […]

human whole blood = format: cell-based
[1] = 25 MG/KG intratracheally at -24 hours then twice a week, 7 weeks, Table 1
[2] = 100 MG/KG intratracheally, 7 weeks, Table 1
[3] = 250 MG/KG intratracheally, 7 weeks, Table 1

## 3-O-deacylated monophosphoryl lipid A [MPL]
Human macrophage; 1 hour
  early TNF alpha RNA: early (1 hour) TNF alpha RNA for both compounds
Human macrophage; 6 hour
  6 hour TNF alpha RNA: measurable 6 hour RNA
P. carinii; [1]
  GIEMSA score for presence of P. carinii: 3.4 ± 0.5
  SILVER score for presence of P. carinii: 3.3 ± 0.1
P. carinii; [2]
  GIEMSA score for presence of P. carinii: 2.7 ± 0.5
  SILVER score for presence of P. carinii: 3.2 ± 0.1
P. carinii; 100 MG/KG, repeated study, Table 2
  GIEMSA score for presence of P. carinii: 1.3 ± 0.3
P. carinii; 200 MG/KG, repeated study, Table 2
  GIEMSA score for presence of P. carinii: 1.0 ± 0.3
P. carinii; [3]
  GIEMSA score for presence of P. carinii: 1.8 ± 0.8
  SILVER score for presence of P. carinii: 1.6 ± 0.2
P. carinii; pulmonary delivery, immunocompromised mice
  nonspecific resistance to infection by Pneumocystis carinii: promotes nonspecific resistance to infection by Pneumocystis carinii
C3H/HEJ splenocytes
  cytokine response: Neither MPL nor RC552 induced a cytokine response
Human whole blood; donor 1
  IL-1β cba2: 1213
Human whole blood; donor 2, ratio of IL-10 to TNF
  IL10/TNFα cba: 1
Human whole blood; donor 2, ratio of TNF to IL-10
  TNFα/IL10 cba: 1
